Positions count from the first letter of the chain named. Like-named read-outs stand apart in the source and are kept apart here. Blank lines part the entries; values can stand above or below the compound they belong to.
Experiments:
[1] = target: T1, Itk^32K L351A (Homo sapiens, UniProt Q08881, L351A); test: Fluorescence anisotropy binding of Mant-labelled nucleotides
T1 construct: Human Itk^171–620 (Itk^32K); GST (cleaved yes); made in house; host or cells: baculovirus-infected Sf9 insect cells
T1 sequence (Q08881 171-620 L351A): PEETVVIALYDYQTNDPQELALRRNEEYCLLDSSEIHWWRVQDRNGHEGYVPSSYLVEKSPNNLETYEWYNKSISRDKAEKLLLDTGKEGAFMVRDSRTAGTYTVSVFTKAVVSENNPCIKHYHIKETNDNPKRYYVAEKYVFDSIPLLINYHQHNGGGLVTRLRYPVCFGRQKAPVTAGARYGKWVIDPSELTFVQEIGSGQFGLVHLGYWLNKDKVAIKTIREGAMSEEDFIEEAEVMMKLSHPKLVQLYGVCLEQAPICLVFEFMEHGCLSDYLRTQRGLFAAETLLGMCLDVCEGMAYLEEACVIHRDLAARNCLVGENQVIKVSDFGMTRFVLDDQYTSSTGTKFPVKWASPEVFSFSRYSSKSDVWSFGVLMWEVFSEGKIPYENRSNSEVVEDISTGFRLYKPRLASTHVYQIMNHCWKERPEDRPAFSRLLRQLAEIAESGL
Description: (§1) Figure 3 An allosteric switch triggers nucleotide exchange. (a) Hydrophobic stack conservation in Src family kinases. The table illustrates the amino acid identity at each of the three positions in the hydrophobic stack in addition to the invariant tryptophan (Trp260 in Src) for all Src family kinase members. The positions are presented according to their N- to C-terminal order in the primary sequences. Where it was not possible to unambiguously determine the identity of the amino acid contributed by the SH2-kinase variable linker (V3), the residue is denoted by a question mark. (b) Small angle X-ray scattering of Itk^32K L351A (black). The scattering curve for wild type Itk^32K (cyan) is overlaid for comparison. […] (c) Rigid body modelling of Itk^32K L351A and fit to ab initio molecular envelope. Displacement of both the SH3 and SH2 domains is required for a good fit to the experimental scattering curve. (d) Determination of the binding constants of Itk^32K L351A for nucleotides by fluorescence anisotropy. […] (e) Determination of the thermal stabilities and relative binding affinities of non-phosphorylated Src^32KΔC L255A for nucleotides by differential scanning fluorimetry. […] TEXT PRINTED IN THE PICTURE: (d) Mant-ADP: Itk^32K L351A (non-phos) Kd (μM): 21.0 ± 2.1 | (d) Mant-ATP: Itk^32K L351A (non-phos) Kd (μM): 31.7 ± 2.7 | (e) ADP: Src^32KΔC L255A (non-phos) [nuc]1/2 (μM): 310 ± 20; Src^32KΔC L255A (non-phos) Tm^max (°C): 52.9; Src^32KΔC L255A (non-phos) ΔTm^max (°C): + 6.8 | (e) ATP: Src^32KΔC L255A (non-phos) [nuc]1/2 (μM): 100 ± 10; Src^32KΔC L255A (non-phos) Tm^max (°C): 54.2; Src^32KΔC L255A (non-phos) ΔTm^max (°C): + 8.1 | (e) apo: Src^32KΔC L255A (non-phos) Tm^max (°C): 46.1
To establish whether hydrophobic stack disassembly triggers a switch in nucleotide binding of the kinase domain, we measured the binding of both unphosphorylated and activation loop phosphorylated (pY511) Itk^32K L351A to ADP and ATP.
(§2) The binding constants for ADP and AMPPNP were determined for Src and Itk proteins by fluorescence anisotropy, using 2′/3′-Mant-labelled nucleotides (Jena Bioscience). Increasing concentrations of Itk^32K, Itk^L351A or Src^32K were incubated with 40 μM Mant-nucleotide in 30 mM Tris pH 7.5, 200 mM NaCl, 5 mM MgCl2, and 1 mM TCEP. Measurements were made with a Perkin Elmer LS50B fluorimeter (λex = 355 nm, λem = 447 nm) at 20 °C. For each data point 50–60 measurements, each with an integration time of 1 s, were averaged. For competition nucleotide displacement assays, 40–80 μM of protein was incubated with 40 μM Mant-ADP until equilibrium was established. Unlabelled nucleotide was titrated into the reaction and fluorescence anisotropy monitored. The equilibrium inhibition constant for the unlabelled nucleotide was calculated from the fitted curve.

[2] = target: T2, Src^32KΔC L255A (Mus musculus, UniProt P05480, L257A); test: Differential scanning fluorimetry (thermal stability vs nucleotide concentration); type: binding
T2 construct: mouse Src^85-523 (Src^32KΔC); GST (cleaved yes); made in house; host or cells: baculovirus-infected Sf9 insect cells
Description: as §1
Due to limiting protein concentrations, we were unable to obtain a binding curve by fluorescence anisotropy, so we instead used thermal stability measurements to investigate its nucleotide-binding properties. Determination of accurate binding constants from thermal stability measurements requires knowledge of the enthalpy of unfolding. However, for a given protein, the enthalpy of unfolding is independent of the ligand being tested, so comparison of the concentrations of nucleotide required for half maximal stabilisation is valid.
Thermal stabilities as a function of nucleotide concentration were measured by differential scanning fluorimetry (DSF). Samples contained 0.1 mg/ml protein in 50 mM Tris pH 7.5, 150 mM NaCl, 1 mM TCEP, and 5 mM MgCl2 with ADP, ATP, or AMPPNP concentrations ranging from 0–16 mM. Samples were measured in triplicate using a BioRad iQ™5 Multicolor Real-Time PCR Detection System. For detection of phosphorylated protein, samples were diluted and 1 ng and 15 ng were loaded to SDS-PAGE for Src and Itk proteins, respectively. Phosphorylation was measured by immunoblot.

[3] = target: T3, Src^32K (Mus musculus, UniProt P05480); test: Fluorescence anisotropy binding of Mant-labelled nucleotides; details: direct Mant-nucleotide binding
T3 construct: mouse Src^85-535 (Src^32K); GST (cleaved yes); made in house; host or cells: baculovirus-infected Sf9 insect cells, co-expressed with human Csk
Description: To characterise the nucleotide binding of Itk and Src, we purified recombinant wild type and mutant constructs of Itk and Src containing their respective SH3, SH2, and kinase domains (from here on referred to as Itk^32K, Src^32K, and Src^32KΔC, Fig. 1a). We confirmed the mass and homogeneity of isolated species by high-resolution anion exchange chromatography, intact mass spectrometry, and Western blotting with phospho-specific antibodies (Supplementary Figs 1–3). We performed fluorescence anisotropy measurements using Mant-labelled nucleotides. […] To avoid autophosphorylation during the course of the titration, we used the non-hydrolysable ATP analogue AMPPNP. […] Src^32K bound ADP approximately 6-fold more tightly than AMPPNP (Supplementary Fig. 4d).
Human Itk^171–620 (Itk^32K), mouse Src^85-535 (Src^32K), and mouse Src^85-523 (Src^32KΔC) as well as their respective point mutants were expressed as GST fusions in baculovirus-infected Sf9 insect cells. For the generation of Tyr527-phosphorylated Src^85-535, the protein was co-expressed with human Csk using pFastBac Dual (Invitrogen). Proteins were purified by sequential glutathione-sepharose affinity chromatography, TEV cleavage, high-resolution anion exchange, and size exclusion chromatography in a final buffer of 50 mM Tris, pH 7.5, 200 mM NaCl, 1 mM TCEP, 1% (v/v) glycerol.
as §2

[4] = target: T4, Itk^32K (Homo sapiens, UniProt Q08881); test: Competition nucleotide displacement assay (Mant-ADP, fluorescence anisotropy); type: binding
T4 construct: Human Itk^171–620 (Itk^32K); GST (cleaved yes); made in house; host or cells: baculovirus-infected Sf9 insect cells
T4 sequence (Q08881 171-620): T1 sequence (Q08881 171-620 L351A) with A181L
Protocol: Figure 1 Autoinhibited Itk and Src kinases preferentially bind ADP. (a) Schematic of constructs evaluated in this study. Itk^32K, Src^32K, and Src^32KΔC contain the conserved module of SH3, SH2, and kinase (^32K) domains. Src^32K was truncated by […] to remove its C-terminal tail (inclusive of the Y527 phosphorylation site), generating a construct we refer to as Src^32KΔC (ΔC-tail). (b) Competition nucleotide displacement assay for Itk^32K. 40 μM Itk^32K was incubated with 40 μM Mant-ADP until equilibrium was established. Unlabelled ADP or AMPPNP was titrated into the reaction and fluorescence anisotropy monitored. Comparison of the equilibrium inhibition constants (K i) gives an indication of the relative strength of nucleotide binding. […] (c) Competition nucleotide displacement assay for Src^32K. 40 μM tail-phosphorylated Src^32K (pY527) or doubly phosphorylated Src^32K pY416 (pY527) was incubated with 40 μM Mant-ADP until equilibrium was established. Unlabelled ADP or AMPPNP was titrated into the reaction and fluorescence anisotropy monitored. Solid lines correspond to Src^32K, dashed lines to Src^32K pY416. AMPPNP binds to Src^32K with 20-fold weaker affinity than ADP. […] (d) Omit map showing clear electron density for ADP and a single magnesium ion in the nucleotide-binding pocket of Src. The magnesium is coordinated by Asn391, Asp404, and the α- and β- phosphates of ADP. The β-phosphate is directly coordinated by the guanidinium side chain of Arg388. […]
Since the concentration of ATP in the cell is typically higher than ADP[33],[34], we performed nucleotide competition assays in order to determine which nucleotide is bound in vivo. We measured the concentrations of ADP or AMPPNP required to displace Mant-ADP. […]
The binding constants for ADP and AMPPNP were determined for Src and Itk proteins by fluorescence anisotropy, using 2′/3′-Mant-labelled nucleotides (Jena Bioscience). […] Unlabelled nucleotide was titrated into the reaction and fluorescence anisotropy monitored. The equilibrium inhibition constant for the unlabelled nucleotide was calculated from the fitted curve.

[5] = target: T5, Src^32KΔC (Mus musculus, UniProt P05480); test: as above; type: binding; details: 40 μM Src^32KΔC, 40 μM Mant-ADP; read-out: Ki (equilibrium inhibition constant)
T5 construct: mouse Src^85-523 (Src^32KΔC); GST (cleaved yes); made in house; host or cells: baculovirus-infected Sf9 insect cells
Protocol: Figure 2 Itk adopts a Src-like autoinhibited conformation. (a) Competition nucleotide displacement assay for Src^32KΔC. 40 μM Src^32KΔC was incubated with 40 μM Mant-ADP until equilibrium was established. Unlabelled ADP or AMPPNP was titrated into the reaction and fluorescence anisotropy monitored. […] (b) Small angle X-ray scattering curves for Itk^32K (cyan), Src^32K (magenta), Src^32KΔC (blue), and Src^32K R175L (green). […] (d) Table of physical parameters obtained from the scattering curves for Itk^32K, Src^32K, Src^32KΔC, and Src^32K R175L. (e)Ab initio model of Itk^32K and docking of autoinhibited Src (2SRC.pdb) into the molecular envelope. Two orientations of the envelope are shown for clarity. (f) Ab initio molecular envelope for Src^32KΔC illustrates the fit of the crystal structure of autoinhibited Src. TEXT PRINTED IN THE PICTURE: (a) ADP: Src^32KΔC Ki (mM): 0.03 ± 0.008 | (a) ANP: Src^32KΔC Ki (mM): 0.69 ± 0.140
as §2

[6] = Src^32KΔC L255A non-phosphorylated, DSF
[7] = Itk^32K L351A non-phosphorylated, read-out: Kd

Kd ([1]; activation loop-phosphorylated (pTyr511) Itk^32K L351A, read-out: Kd (binding constant)): 37 µM
additional thermal stability conferred by ATP over ADP ([2]; Src^32KΔC L255A non-phosphorylated): 1.3 °C
Tm^max [2, 6]: 54.2 °C
[nuc]1/2 (nucleotide concentration for half maximal stabilisation) [2, 6]: 100 ± 10 µM
Compound: Nc1ncnc2c1ncn2[C@@H]1O[C@H](COP(=O)(O)OP(=O)(O)OP(=O)(O)O)[C@@H](O)[C@H]1O [ATP]
relative binding of ATP versus ADP ([2]; Src^32KΔC L255A, from half maximal stabilisation concentrations): approximately three times better than ADP

Kd [1, 7]: 31.7 ± 2.7 µM
Compound: Mant-ATP

fold difference in affinity, ADP tighter than AMPPNP [3]: approximately 6 fold
Ki ([4]; 40 μM Itk^32K, 40 μM Mant-ADP, read-out: Ki (equilibrium inhibition constant)): 7900 µM
fold difference in Ki, AMPPNP weaker than ADP ([4]; Itk^32K, displacement of Mant-ADP): ~41 fold
Ki [5]: 690 ± 140 µM
Compound: Nc1ncnc2c1ncn2[C@@H]1O[C@H](COP(=O)(O)OP(=O)(O)NP(=O)(O)O)[C@@H](O)[C@H]1O [AMPPNP]

Kd [1, 7]: 21 ± 2.1 µM
Compound: Mant-ADP
